Measured values published in patent US9801943B2, “Method for in vivo targeting of nanoparticles via bioorthogonal copper-free click chemistry” (KOREA INSTITUTE OF SCIENCE AND TECHNOLOGY, priority 2012, dated 2017).

What was measured:
A549 tumors [1] = assay: Generation of azide groups in tumor tissues (western blot, immunohistochemical staining); type: in vivo, mice; conditions: Ac4ManNAz 0.5, 5, 50 mM intratumoral once daily for 3 days; tumors dissected on day 4
Procedure: Preparation of tumor-bearing mouse models and administration of Ac4ManNAz were performed according to the same method as described above. 24 hours after the injection of Ac4ManNAz (on day 4), the tumors were dissected, transferred into 1 mL of lysis buffer (1% SDS, 100 mM Tris.HCl, pH 7.4) containing protease inhibitor (Complete, EDTA-free), and homogenized using a homogenizer (WiseMix HG-15D, Daihan Scientific, Seoul, Korea). The lysate was incubated at 4° C. for 30 minutes and insoluble debris was removed by centrifuging at 3,000×g for 10 minutes. Protein concentration was measured using the BCA protein assay kit. Staudinger reaction with phosphine-FLAG, SDS-PAGE and western blot analysis were conducted as described above.
The dissected tumor tissues were retrieved and fixed in a 4% (v/v) buffered formalin solution, dehydrated with graded ethanol series, and embedded in paraffin. The paraffin tissues were sliced into 4-μm wide slices and immunohistochemical staining was performed using Histostain®-Plus Brod Spectrum (Invitrogen, CA, USA) in combination with phosphine-FLAG and monoclonal anti-FLAG-HRP antibodies according to the manufacturer's instructions. The paraffin slices were dehydrated, mounted using the Permount SP15-100 Toluene Solution (Fisher Scientific, NJ, USA) mounting medium, and observed with an optical microscope (BX51, Olympus, Tokyo, Japan). […]

A549 cells = assay: Generation of azide groups on A549 cells (Coomassie staining, western blot with phosphine-FLAG); type: cell-based, human; conditions: Ac4ManNAz 0.5, 5, 50 μM, 3 days
Procedure: A549 cells in 10 mL of media with no sugar or different concentrations of Ac4ManNAz (final concentrations of 0.5 μM, 5 μM and 50 μM) were seeded onto 100×20 mm polystyrene tissue culture plates at a density of 1.5×10^6 cells per plate and incubated for 3 days. The cells were washed twice with PBS (pH 7.4) and harvested from the plates with a cell scraper. The cells were pelletized by centrifuging at 3,000×g for 5 minutes and the supernatant was discarded. The cell pellets were resuspended in 500 μL of lysis buffer (1% SDS, 100 mM Tris.HCl, pH 7.4) containing protease inhibitor (Complete, EDTA-free) and lysed at 4° C. using a probe-type sonicator. The sonicated lysates were incubated at 4° C. for 30 minutes to further solubilize proteins. Insoluble debris was removed by centrifuging at 3,000×g for 10 minutes. Total soluble protein concentration was determined by the bicinchroninic acid (BCA) protein assay (Pierce, Ill., USA) to be 5 mg/mL. 20 μL of the lysate (5 mg/mL protein) was incubated with 2 μL of phosphine-FLAG (5 mM in PBS, pH 7.4) (Sigma, St. Louis, Mo., USA) at 37° C. for 6 hours. SDS-PAGE loading buffer was added to each sample. Then, aliquots were loaded onto 10% SDS-PAGE after heating at 95° C. […]

A549 tumors [2] = assay: In vivo and ex vivo NIRF imaging of tumor targeting in A549 tumor-bearing mice; conditions: i.v., same fluorescence intensity as DBCO-lipo
Procedure: All experiments using live animals were performed in compliance with the relevant laws and the institutional guidelines of the Korea Institute of Science and Technology (KIST) and under the approval by the institutional committee. For in vivo and ex vivo experiments, 1.0×10^7 A549 tumor cells were administered to 5-week-old male athymic nude mice (20 g, Institute of Medical Science, Tokyo, Japan) on both flanks by subcutaneous injection. […] DBCO-lipo (10 mg/kg), DBCO-free control liposome (10 mg/kg) or DBCO-fluorescent dye conjugate of the same fluorescence intensity as DBCO-lipo were injected into the tail veins of two A549 tumor-bearing mice. […] Near-infrared (NIR) fluorescence emission at 700 nm was collected and detected with a fast photomultiplier tube (Hamamatsu, Japan) and a time-correlated single photon counting system (Becker and Hickl GmbH, Berlin, Germany). The active tumor targeting characteristics of DBCO-lipo were evaluated by capturing 20 z-section images at 1.0 mm spacing using the Analysis Workstation software (ART Advanced Research Technologies Inc., Montreal, Canada). […] NIR fluorescence images were obtained using a 12-bit CCD (Kodak Image Station 4000 MM, New Haven, Conn., USA) equipped with a Cy5.5 emission filter (600-700 nm; Omega Optical). […] All numerical values were expressed as mean±standard deviation for the three animal groups. […]

Compound | amount of azide groups in tumor tissues (A549 tumors [1]) | generation of azide groups on cell surface (A549 cells) | NIRF image brightness in mice (A549 tumors [2])
CC(=O)OC[C@H]1OC(OC(C)=O)[C@@H](NC(=O)CN=[N+]=[N-])[C@@H](OC(C)=O)[C@@H]1OC(C)=O (stereo partly drawn) [Ac4ManNAz, Tetraacetylated N-azidoacetyl-D-mannosamine] | increased in a dose-dependent manner | modified azide groups could be generated on the surface of the A549 cells | 
dibenzylcyclooctyne-SETA650 [DBCO-SETA] |  |  | relatively dim images
